Paper PMC3105219 (Neuropharmacology, 2011)

Legend:
mDAT F155Y = mDAT F155Y (Mus musculus, UniProt Q61327, F155Y); assay: Uptake inhibition, mDAT F155Y mutant; assay type: cell-based; details: for IC50: read-out: IC50 uptake inhibition, mDAT F155Y, mean ± SEM
mNET Y151F = mNET Y151F (Mus musculus, UniProt O55192, Y151F); assay: Uptake inhibition, mNET Y151F mutant; assay type: cell-based; details: for IC50: read-out: IC50 uptake inhibition, mNET Y151F, mean ± SEM
DAT = details: ref Carroll et al., 1995, cited from earlier work
NET = details: ref Carroll et al., 1995, cited from earlier work
[1] = biological target: mNET-TM8m (A415T/L418I/S421A/A427S/A433V/D435E) (Mus musculus, UniProt O55192, A414T/A426S/A432V/D434E/L417I/S420A); assay: Uptake inhibition, mNET-TM8m mutant; assay type: cell-based; details: read-out: RTI-113 IC50 [nM] uptake inhibition, mean ± SEM
Sequence of mNET-TM8m (A415T/L418I/S421A/A427S/A433V/D435E) (O55192 whole entry A414T/L417I/S420A/A426S/A432V/D434E): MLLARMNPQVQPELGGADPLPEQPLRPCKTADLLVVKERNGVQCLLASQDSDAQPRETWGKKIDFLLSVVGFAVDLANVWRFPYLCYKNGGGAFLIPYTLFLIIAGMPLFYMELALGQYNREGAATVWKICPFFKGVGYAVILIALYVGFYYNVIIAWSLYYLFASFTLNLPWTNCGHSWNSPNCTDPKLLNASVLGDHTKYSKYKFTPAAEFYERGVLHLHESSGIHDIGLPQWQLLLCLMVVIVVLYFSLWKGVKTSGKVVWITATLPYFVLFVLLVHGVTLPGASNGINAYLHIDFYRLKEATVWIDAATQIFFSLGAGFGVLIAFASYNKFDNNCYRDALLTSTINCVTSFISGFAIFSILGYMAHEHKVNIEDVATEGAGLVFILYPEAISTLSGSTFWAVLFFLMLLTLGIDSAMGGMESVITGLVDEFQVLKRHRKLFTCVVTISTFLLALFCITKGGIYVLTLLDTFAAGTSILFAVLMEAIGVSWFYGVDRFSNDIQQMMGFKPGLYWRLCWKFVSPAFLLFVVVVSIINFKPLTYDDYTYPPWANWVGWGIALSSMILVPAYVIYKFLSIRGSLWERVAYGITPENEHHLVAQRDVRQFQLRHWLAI

[2] = biological target: mNET-TM6m (T306S/I315V/F316C/A321) (Mus musculus, UniProt O55192, A321V/F316C/I315V/T306S); assay: Uptake inhibition, mNET-TM6m mutant; assay type: cell-based; details: read-out: RTI-113 IC50 [nM] uptake inhibition, mean ± SEM
Sequence of mNET-TM6m (T306S/I315V/F316C/A321) (O55192 whole entry T306S/I315V/F316C/A321V): as the sequence (O55192 whole entry A414T/L417I/S420A/A426S/A432V/D434E) above, with T306S, I315V, F316C, A321V, T414A, I417L, A420S, S426A, V432A, E434D counted along it

[3] = biological target: mNET-TM3m (Y151F/S159A/Y161H) (Mus musculus, UniProt O55192, S159A/Y151F/Y161H); assay: Uptake inhibition, mNET-TM3m mutant; assay type: cell-based; details: read-out: RTI-113 IC50 [nM] uptake inhibition, mean ± SEM
Sequence of mNET-TM3m (Y151F/S159A/Y161H) (O55192 whole entry Y151F/S159A/Y161H): as the sequence (O55192 whole entry A414T/L417I/S420A/A426S/A432V/D434E) above, with Y151F, S159A, Y161H, T414A, I417L, A420S, S426A, V432A, E434D counted along it

mNET Y151A = mNET Y151A (Mus musculus, UniProt O55192, Y151A); assay: Uptake inhibition, mNET Y151A mutant; assay type: cell-based; details: read-out: RTI-113 IC50 [nM] uptake inhibition, mean ± SEM
Sequence of mNET Y151A (O55192 whole entry Y151A): as the sequence (O55192 whole entry A414T/L417I/S420A/A426S/A432V/D434E) above, with Y151A, T414A, I417L, A420S, S426A, V432A, E434D counted along it

mNET Y151C = mNET Y151C (Mus musculus, UniProt O55192, Y151C); assay: Uptake inhibition, mNET Y151C mutant; assay type: cell-based; details: read-out: RTI-113 IC50 [nM] uptake inhibition, mean ± SEM
Sequence of mNET Y151C (O55192 whole entry Y151C): as the sequence (O55192 whole entry A414T/L417I/S420A/A426S/A432V/D434E) above, with Y151C, T414A, I417L, A420S, S426A, V432A, E434D counted along it

mNET Y151D = mNET Y151D (Mus musculus, UniProt O55192, Y151D); assay: Uptake inhibition, mNET Y151D mutant; assay type: cell-based; details: read-out: RTI-113 IC50 [nM] uptake inhibition, mean ± SEM
Sequence of mNET Y151D (O55192 whole entry Y151D): as the sequence (O55192 whole entry A414T/L417I/S420A/A426S/A432V/D434E) above, with Y151D, T414A, I417L, A420S, S426A, V432A, E434D counted along it

mNET Y151E = mNET Y151E (Mus musculus, UniProt O55192, Y151E); assay: Uptake inhibition, mNET Y151E mutant; assay type: cell-based; details: read-out: RTI-113 IC50 [nM] uptake inhibition, mean ± SEM
Sequence of mNET Y151E (O55192 whole entry Y151E): as the sequence (O55192 whole entry A414T/L417I/S420A/A426S/A432V/D434E) above, with Y151E, T414A, I417L, A420S, S426A, V432A, E434D counted along it

mNET Y151G = mNET Y151G (Mus musculus, UniProt O55192, Y151G); assay: Uptake inhibition, mNET Y151G mutant; assay type: cell-based; details: read-out: RTI-113 IC50 [nM] uptake inhibition, mean ± SEM
Sequence of mNET Y151G (O55192 whole entry Y151G): as the sequence (O55192 whole entry A414T/L417I/S420A/A426S/A432V/D434E) above, with Y151G, T414A, I417L, A420S, S426A, V432A, E434D counted along it

mNET Y151I = mNET Y151I (Mus musculus, UniProt O55192, Y151I); assay: Uptake inhibition, mNET Y151I mutant; assay type: cell-based; details: read-out: RTI-113 IC50 [nM] uptake inhibition, mean ± SEM
Sequence of mNET Y151I (O55192 whole entry Y151I): as the sequence (O55192 whole entry A414T/L417I/S420A/A426S/A432V/D434E) above, with Y151I, T414A, I417L, A420S, S426A, V432A, E434D counted along it

mNET Y151K = mNET Y151K (Mus musculus, UniProt O55192, Y151K); assay: Uptake inhibition, mNET Y151K mutant; assay type: cell-based; details: read-out: RTI-113 IC50 [nM] uptake inhibition, mean ± SEM
Sequence of mNET Y151K (O55192 whole entry Y151K): as the sequence (O55192 whole entry A414T/L417I/S420A/A426S/A432V/D434E) above, with Y151K, T414A, I417L, A420S, S426A, V432A, E434D counted along it

mNET Y151L = mNET Y151L (Mus musculus, UniProt O55192, Y151L); assay: Uptake inhibition, mNET Y151L mutant; assay type: cell-based; details: read-out: RTI-113 IC50 [nM] uptake inhibition, mean ± SEM
Sequence of mNET Y151L (O55192 whole entry Y151L): as the sequence (O55192 whole entry A414T/L417I/S420A/A426S/A432V/D434E) above, with Y151L, T414A, I417L, A420S, S426A, V432A, E434D counted along it

mNET Y151M = mNET Y151M (Mus musculus, UniProt O55192, Y151M); assay: Uptake inhibition, mNET Y151M mutant; assay type: cell-based; details: read-out: RTI-113 IC50 [nM] uptake inhibition, mean ± SEM
Sequence of mNET Y151M (O55192 whole entry Y151M): as the sequence (O55192 whole entry A414T/L417I/S420A/A426S/A432V/D434E) above, with Y151M, T414A, I417L, A420S, S426A, V432A, E434D counted along it

mNET Y151N = mNET Y151N (Mus musculus, UniProt O55192, Y151N); assay: Uptake inhibition, mNET Y151N mutant; assay type: cell-based; details: read-out: RTI-113 IC50 [nM] uptake inhibition, mean ± SEM
Sequence of mNET Y151N (O55192 whole entry Y151N): as the sequence (O55192 whole entry A414T/L417I/S420A/A426S/A432V/D434E) above, with Y151N, T414A, I417L, A420S, S426A, V432A, E434D counted along it

mNET Y151Q = mNET Y151Q (Mus musculus, UniProt O55192, Y151Q); assay: Uptake inhibition, mNET Y151Q mutant; assay type: cell-based; details: read-out: RTI-113 IC50 [nM] uptake inhibition, mean ± SEM
Sequence of mNET Y151Q (O55192 whole entry Y151Q): as the sequence (O55192 whole entry A414T/L417I/S420A/A426S/A432V/D434E) above, with Y151Q, T414A, I417L, A420S, S426A, V432A, E434D counted along it

mNET Y151S = mNET Y151S (Mus musculus, UniProt O55192, Y151S); assay: Uptake inhibition, mNET Y151S mutant; assay type: cell-based; details: read-out: RTI-113 IC50 [nM] uptake inhibition, mean ± SEM
Sequence of mNET Y151S (O55192 whole entry Y151S): as the sequence (O55192 whole entry A414T/L417I/S420A/A426S/A432V/D434E) above, with Y151S, T414A, I417L, A420S, S426A, V432A, E434D counted along it

mNET Y151T = mNET Y151T (Mus musculus, UniProt O55192, Y151T); assay: Uptake inhibition, mNET Y151T mutant; assay type: cell-based; details: read-out: RTI-113 IC50 [nM] uptake inhibition, mean ± SEM
Sequence of mNET Y151T (O55192 whole entry Y151T): as the sequence (O55192 whole entry A414T/L417I/S420A/A426S/A432V/D434E) above, with Y151T, T414A, I417L, A420S, S426A, V432A, E434D counted along it

mNET Y151V = mNET Y151V (Mus musculus, UniProt O55192, Y151V); assay: Uptake inhibition, mNET Y151V mutant; assay type: cell-based; details: read-out: RTI-113 IC50 [nM] uptake inhibition, mean ± SEM
Sequence of mNET Y151V (O55192 whole entry Y151V): as the sequence (O55192 whole entry A414T/L417I/S420A/A426S/A432V/D434E) above, with Y151V, T414A, I417L, A420S, S426A, V432A, E434D counted along it

mNET Y151W = mNET Y151W (Mus musculus, UniProt O55192, Y151W); assay: Uptake inhibition, mNET Y151W mutant; assay type: cell-based; details: read-out: RTI-113 IC50 [nM] uptake inhibition, mean ± SEM
Sequence of mNET Y151W (O55192 whole entry Y151W): as the sequence (O55192 whole entry A414T/L417I/S420A/A426S/A432V/D434E) above, with Y151W, T414A, I417L, A420S, S426A, V432A, E434D counted along it

mNET = mNET (Mus musculus, UniProt O55192); assay type: cell-based
Sequence of mNET (O55192 whole entry): as the sequence (O55192 whole entry A414T/L417I/S420A/A426S/A432V/D434E) above, with T414A, I417L, A420S, S426A, V432A, E434D counted along it

mDAT = mDAT (Mus musculus, UniProt Q61327); assay: Inhibition of [3H]dopamine uptake, wild type mDAT in transfected HeLa cells; assay type: cell-based
Sequence of mDAT (Q61327 whole entry): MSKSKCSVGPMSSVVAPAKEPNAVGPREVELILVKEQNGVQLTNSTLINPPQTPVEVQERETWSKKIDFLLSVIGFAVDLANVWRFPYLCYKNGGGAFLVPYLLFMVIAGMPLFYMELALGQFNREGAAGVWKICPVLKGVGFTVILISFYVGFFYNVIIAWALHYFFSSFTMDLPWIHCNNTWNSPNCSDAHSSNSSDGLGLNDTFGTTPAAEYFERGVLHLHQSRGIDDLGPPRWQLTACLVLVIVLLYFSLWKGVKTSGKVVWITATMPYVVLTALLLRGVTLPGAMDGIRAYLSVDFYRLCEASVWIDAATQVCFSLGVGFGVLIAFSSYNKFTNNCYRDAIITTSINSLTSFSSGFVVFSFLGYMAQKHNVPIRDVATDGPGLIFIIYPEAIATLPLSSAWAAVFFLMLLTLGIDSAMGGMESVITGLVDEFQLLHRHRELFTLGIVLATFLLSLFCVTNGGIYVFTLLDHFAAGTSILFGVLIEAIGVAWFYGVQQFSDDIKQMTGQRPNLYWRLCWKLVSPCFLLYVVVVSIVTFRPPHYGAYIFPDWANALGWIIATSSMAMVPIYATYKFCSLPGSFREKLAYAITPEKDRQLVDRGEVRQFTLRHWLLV

Sequence of mNET Y151F (O55192 whole entry Y151F): as the sequence (O55192 whole entry A414T/L417I/S420A/A426S/A432V/D434E) above, with Y151F, T414A, I417L, A420S, S426A, V432A, E434D counted along it
Sequence of mDAT F155Y (Q61327 whole entry F155Y): as the sequence (Q61327 whole entry) above, with F155Y counted along it

COC(=O)[C@H]1[C@@H](c2ccc(Cl)cc2)C[C@H]2CC[C@H]1N2C [RTI-31]
IC50 (mDAT F155Y): 1.65 ± 1.19 nM | IC50 (mNET Y151F): 1.44 ± 0.67 nM | potency in inhibiting DAT compared with cocaine (DAT; times more potent than cocaine): 100 x | potency in inhibiting NET compared with cocaine (NET; times more potent than cocaine): 100 x

CN1[C@H]2CC[C@@H]1[C@@H](C(=O)Oc1ccccc1)[C@@H](c1ccc(Cl)cc1)C2 [RTI-113]
IC50 [1]: 269 ± 35.8 nM | IC50 [2]: 341 ± 77.2 nM | IC50 [3]: 1.89 ± 1.29 nM | decrease in potency (mDAT F155Y; mDAT-F155Y versus wild type mDAT): 20 fold | IC50 (mDAT F155Y): 13.4 ± 1.9 nM | increase in potency for inhibition of substrate uptake (mNET Y151F; mNET-Y151F versus wild type mNET): 14 fold | IC50 (mNET Y151F): 12.1 ± 0.8 nM | IC50 (mNET Y151A): 130 ± 15.1 nM | IC50 (mNET Y151C): 211 ± 23 nM | IC50 (mNET Y151D): 306 ± 105 nM | IC50 (mNET Y151E): 770 ± 55.3 nM | IC50 (mNET Y151G): 165 ± 28.4 nM | IC50 (mNET Y151I): 199 ± 65.1 nM | IC50 (mNET Y151K): 453 ± 71 nM | IC50 (mNET Y151L): 342 ± 110 nM | IC50 (mNET Y151M): 679 ± 174 nM | IC50 (mNET Y151N): 291 ± 51.5 nM | IC50 (mNET Y151Q): 831 ± 69 nM | IC50 (mNET Y151S): 99.3 ± 43.8 nM | IC50 (mNET Y151T): 115 ± 33.2 nM | IC50 (mNET Y151V): 181 ± 81.1 nM | IC50 (mNET Y151W): 256 ± 66.9 nM | potency at inhibiting DAT relative to inhibiting NET (DAT; DAT over NET selectivity, stated in abstract): 100 x | loss of potency to NET compared with RTI-31 (NET; times less potent than RTI-31): about 100 times

COC(=O)[C@H]1[C@@H](OC(=O)c2ccccc2)C[C@@H]2CC[C@H]1N2C [cocaine]
IC50 (mNET): 398 ± 66.8 nM | IC50 (mDAT): 318 ± 126 nM
